Inhibition and Activity data for 17 compounds are collected here from ChEMBL document CHEMBL2203074 (Bioorg Med Chem Lett, 2012).

Data set [1] can be described thus: Inhibition of amyloid beta (1-42) aggregation at 20 uM after 48 hrs by thioflavin T fluorescence method relative to control.
Data set [2] relates to SH-SY5Y. The data set is described as follows: Neuroprotective activity in human SH-SY5Y cells assessed as decrease in tertiary butylhydroperoxide-induced radical formation incubated for 24 hrs prior to tertiary butylhydroperoxide challenge measured after 30 mins by DCFH-DA staining-based fluorescence assay. It counts as functional, cell-based.
Data set [3] in a line: Antioxidant activity assessed as trolox equivalent of AAPH-induced radical scavenging activity incubated for 10 mins prior to APPH challenge measured every minute for 120 mins by ORAC assay. It counts as functional.
Data set [4] deals with SH-SY5Y. The data set is described as follows: Cytotoxicity against human SH-SY5Y cells assessed as cell viability at 12.5 to 25 uM after 48 hrs by MTT assay. It counts as cell-based. In general terms: Tetrazolium dyes change colour on reduction, which living cells bring about.
Data set [5] has as its system SH-SY5Y. The data set is described as follows: Cytotoxicity against human SH-SY5Y cells assessed as cell viability at 25 uM after 48 hrs by MTT assay. It counts as cell-based.
Data set [6] deals with SH-SY5Y. Kind of data set: Cytotoxicity against human SH-SY5Y cells assessed as cell viability at 60 uM after 48 hrs by MTT assay. It counts as cell-based.
Data set [7] in a line: Inhibition of amyloid beta (1-42) aggregation at 20 uM after 24 hrs by transmission electron microscopy.
Data set [8] has as its system SH-SY5Y. Kind of data set: Neuroprotective activity in human SH-SY5Y cells assessed as decrease in tertiary butylhydroperoxide-induced radical formation at 10 uM incubated for 24 hrs prior to tertiary butylhydroperoxide challenge measured after 30 mins by DCFH-DA staining-based fluorescence assay. It counts as functional. The arrangement: scale not given: the % may be the effect or the level left.

Activity calls are given as the source filed them. No cut-off for these calls is given here.

One may read the inhibition as the relative decrease from the control value, in per cent. In data set [1], `CNc1ccc(/C=C/c2cc(O)cc(O)c2)cc1` showed an inhibition of 63.7%. The Activity entry in the data set on SH-SY5Y [2] is “Dose-dependent effect”; in data set [3] it was 5.54 equiv; with SH-SY5Y [4], “Non-toxic”.

As for `Oc1cc(O)cc(/C=C/c2ccncc2)c1`, in data set [1], the inhibition was found to be 13.6%. Besides, the Activity in data set [3] was determined as 1.71 equiv.

On to `Oc1cc(O)cc(/C=C/c2ccc(NC3CCCCC3)cc2)c1`, for which the inhibition in data set [1] was 65.5%. Also, in data set [3], the Activity is 2.25 equiv.

In turn, `CC(C)(C)c1ccc(/C=C/c2cc(O)cc(O)c2)cc1` showed an inhibition in data set [1] of 43.6%. In addition, the Activity in data set [3] worked out at 1.28 equiv.

For the compound `CCNc1ccc(/C=C/c2cc(O)cc(O)c2)cc1`, the inhibition in data set [1] was found to be 68.6%. Moreover, the Activity entry was “Dose-dependent effect” in the data set with SH-SY5Y [2], “Toxic” in the data set with SH-SY5Y [5] and 5.19 equiv in data set [3].

Consider `CCN(CC)c1ccc(/C=C/c2cc(O)cc(O)c2)cc1`, for which the inhibition in data set [1] was 64.8%. For the same compound, the Activity in data set [3] came out at 3.31 equiv.

Consider `CN(C)c1ccc(CCc2cc(O)cc(O)c2)cc1`, for which, in data set [1], the inhibition turned out to be 48.5%. For the same compound, the Activity in data set [3] stood at 5.21 equiv.

For `Oc1ccc(/C=C/c2cc(O)cc(O)c2)cc1` [RESVERATROL], in data set [1], the inhibition is 69.7%. Besides, the Activity entry in the data set with SH-SY5Y [2] is “Dose-dependent effect”; with SH-SY5Y [6], “Toxic”. Also, in data set [7], the inhibition result was “Active”.

Compound `Oc1cc(O)cc(/C=C/c2ccc(NC3CCCC3)cc2)c1` yielded an inhibition in data set [1] of 68.7%. In data set [3], the Activity stood at 3.37 equiv.

Consider `COc1cc(/C=C/c2ccc(N(C)C)cc2)cc(OC)c1`, for which the inhibition in data set [1] was determined as 7.02%. For the same compound, in data set [3], the Activity was 3.46 equiv.

Take `CCCN(CCC)c1ccc(/C=C/c2cc(O)cc(O)c2)cc1`: the inhibition in data set [1] amounted to 69%. In data set [3], the Activity came to 2.37 equiv.

In data set [1], `CC(C)Nc1ccc(/C=C/c2cc(O)cc(O)c2)cc1` had an inhibition of 71.7%. For the same compound, the Activity with SH-SY5Y [8] is 37%; in the data set on SH-SY5Y [2], “Dose-dependent effect”; in data set [3], 4.12 equiv; in the data set with SH-SY5Y [4] it was “Non-toxic”. The inhibition entry in data set [7] was “Active”.

On to `CN(C)c1ccccc1/C=C/c1cc(O)cc(O)c1`, for which, in data set [1], the inhibition was 59.4%. For the same compound, the Activity in data set [3] stood at 2.05 equiv.

As for `CN(C)c1cccc(/C=C/c2cc(O)cc(O)c2)c1`, in data set [1], the inhibition came out at 61.5%. The Activity in data set [3] was found to be 3.93 equiv.

In data set [1], `Oc1cc(O)cc(/C=C/c2ccc(Br)cc2)c1` came in with an inhibition of 25.2%. Besides, in data set [3], the Activity was determined as 2.33 equiv.

In the case of `CCCNc1ccc(/C=C/c2cc(O)cc(O)c2)cc1`, in data set [1], the inhibition turned out to be 66.7%. Besides, the Activity in data set [3] amounted to 4.33 equiv.

As to `CN(C)c1ccc(/C=C/c2cc(O)cc(O)c2)cc1`, in data set [1], the inhibition turned out to be 65.2%. Moreover, the Activity is 4.7 equiv in data set [3] and “Non-toxic” with SH-SY5Y [4].
